Measured values as given in article PMC7497403, “Development of Potent PfCLK3 Inhibitors Based on TCMDC-135051 as a New Class of Antimalarials” (Journal of Medicinal Chemistry, 2020).

How the values were obtained:
Assay in all cases: Kinase screen
Format in all cases: biochemical
ABL = ABL (Homo sapiens, UniProt P00519)
Description: (§1) With verapamil used as a positive control.
(§2) V. Distribution coefficient (LogD7.4)

ULK1 = ULK1 (Homo sapiens, UniProt O75385)
Description: as §1, §2

MARK3 = MARK3 (Homo sapiens, UniProt P27448)
Description: as §1, §2

ASK1 = ASK1 (Homo sapiens, UniProt Q99683)
Description: as §1, §2

FGF-R1 = FGF-R1 (Homo sapiens, UniProt P11362)
Description: as §1, §2

NEK6 = NEK6 (Homo sapiens, UniProt Q9HC98)
Description: as §1, §2

CDK9-Cyclin T1 = CDK9-Cyclin T1 (Homo sapiens, UniProt P50750)
Description: as §1, §2

RSK2 = RSK2 (Homo sapiens, UniProt P51812)
Description: as §1, §2

PKCγ = PKCγ (Homo sapiens, UniProt P05129)
Description: as §1, §2

OSR1 = OSR1 (Homo sapiens, UniProt O95747)
Description: as §1, §2

MARK2 = MARK2 (Homo sapiens, UniProt Q7KZI7)
Description: as §1, §2

NEK2a = NEK2a (Homo sapiens, UniProt P51955)
Description: as §1, §2

ERK2 = ERK2 (Homo sapiens, UniProt P28482)
ERK2, sequence (P28482 whole entry): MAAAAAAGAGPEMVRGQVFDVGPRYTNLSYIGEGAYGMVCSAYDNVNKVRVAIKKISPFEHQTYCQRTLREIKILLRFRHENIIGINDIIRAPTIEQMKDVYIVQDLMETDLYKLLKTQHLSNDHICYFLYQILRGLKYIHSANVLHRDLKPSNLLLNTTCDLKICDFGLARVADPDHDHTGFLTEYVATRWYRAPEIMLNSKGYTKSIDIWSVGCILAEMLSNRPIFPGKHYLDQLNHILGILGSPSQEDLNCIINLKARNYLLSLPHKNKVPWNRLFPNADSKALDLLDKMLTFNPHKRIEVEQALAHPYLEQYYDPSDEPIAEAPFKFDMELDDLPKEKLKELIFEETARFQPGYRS
Description: as §1, §2

TSSK1 = TSSK1 (Homo sapiens, UniProt Q9BXA7)
Description: as §1, §2

MAP4K5 = MAP4K5 (Homo sapiens, UniProt Q9Y4K4)
Description: as §1, §2

TAO1 = TAO1 (Homo sapiens, UniProt Q7L7X3)
Description: as §1, §2

MARK1 = MARK1 (Homo sapiens, UniProt Q9P0L2)
Description: as §1, §2

PIM3 = PIM3 (Homo sapiens, UniProt Q86V86)
Description: as §1, §2

CAMK1 = CAMK1 (Homo sapiens, UniProt Q14012)
CAMK1, sequence (Q14012 whole entry): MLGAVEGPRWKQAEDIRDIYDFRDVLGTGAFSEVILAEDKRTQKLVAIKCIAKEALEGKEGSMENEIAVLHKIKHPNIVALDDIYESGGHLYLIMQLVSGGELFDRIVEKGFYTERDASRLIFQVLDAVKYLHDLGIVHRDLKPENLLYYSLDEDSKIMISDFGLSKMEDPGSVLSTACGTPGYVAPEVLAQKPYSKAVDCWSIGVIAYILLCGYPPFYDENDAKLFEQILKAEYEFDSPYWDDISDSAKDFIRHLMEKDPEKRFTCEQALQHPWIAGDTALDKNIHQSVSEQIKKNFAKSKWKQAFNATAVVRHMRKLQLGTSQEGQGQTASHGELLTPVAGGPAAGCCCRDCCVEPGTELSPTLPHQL
Description: as §1, §2

MLK3 = MLK3 (Homo sapiens, UniProt Q16584)
Description: as §1, §2

MARK4 = MARK4 (Homo sapiens, UniProt Q96L34)
Description: as §1, §2

NUAK1 = NUAK1 (Homo sapiens, UniProt O60285)
Description: as §1, §2

CDK2-Cyclin A = CDK2-Cyclin A (Homo sapiens, UniProt P24941)
Description: as §1, §2

CHK2 = CHK2 (Homo sapiens, UniProt O96017)
Description: as §1, §2

HIPK1 = HIPK1 (Homo sapiens, UniProt Q86Z02)
Description: as §1, §2

Aurora B = Aurora B (Homo sapiens, UniProt Q96GD4)
Description: as §1, §2

PLK1 = PLK1 (Homo sapiens, UniProt P53350)
Description: as §1, §2

S6K1 = S6K1 (Homo sapiens, UniProt P23443)
Description: as §1, §2

JNK2 = JNK2 (Homo sapiens, UniProt P45984)
Description: as §1, §2

MLK1 = MLK1 (Homo sapiens, UniProt P80192)
MLK1, sequence (P80192 whole entry): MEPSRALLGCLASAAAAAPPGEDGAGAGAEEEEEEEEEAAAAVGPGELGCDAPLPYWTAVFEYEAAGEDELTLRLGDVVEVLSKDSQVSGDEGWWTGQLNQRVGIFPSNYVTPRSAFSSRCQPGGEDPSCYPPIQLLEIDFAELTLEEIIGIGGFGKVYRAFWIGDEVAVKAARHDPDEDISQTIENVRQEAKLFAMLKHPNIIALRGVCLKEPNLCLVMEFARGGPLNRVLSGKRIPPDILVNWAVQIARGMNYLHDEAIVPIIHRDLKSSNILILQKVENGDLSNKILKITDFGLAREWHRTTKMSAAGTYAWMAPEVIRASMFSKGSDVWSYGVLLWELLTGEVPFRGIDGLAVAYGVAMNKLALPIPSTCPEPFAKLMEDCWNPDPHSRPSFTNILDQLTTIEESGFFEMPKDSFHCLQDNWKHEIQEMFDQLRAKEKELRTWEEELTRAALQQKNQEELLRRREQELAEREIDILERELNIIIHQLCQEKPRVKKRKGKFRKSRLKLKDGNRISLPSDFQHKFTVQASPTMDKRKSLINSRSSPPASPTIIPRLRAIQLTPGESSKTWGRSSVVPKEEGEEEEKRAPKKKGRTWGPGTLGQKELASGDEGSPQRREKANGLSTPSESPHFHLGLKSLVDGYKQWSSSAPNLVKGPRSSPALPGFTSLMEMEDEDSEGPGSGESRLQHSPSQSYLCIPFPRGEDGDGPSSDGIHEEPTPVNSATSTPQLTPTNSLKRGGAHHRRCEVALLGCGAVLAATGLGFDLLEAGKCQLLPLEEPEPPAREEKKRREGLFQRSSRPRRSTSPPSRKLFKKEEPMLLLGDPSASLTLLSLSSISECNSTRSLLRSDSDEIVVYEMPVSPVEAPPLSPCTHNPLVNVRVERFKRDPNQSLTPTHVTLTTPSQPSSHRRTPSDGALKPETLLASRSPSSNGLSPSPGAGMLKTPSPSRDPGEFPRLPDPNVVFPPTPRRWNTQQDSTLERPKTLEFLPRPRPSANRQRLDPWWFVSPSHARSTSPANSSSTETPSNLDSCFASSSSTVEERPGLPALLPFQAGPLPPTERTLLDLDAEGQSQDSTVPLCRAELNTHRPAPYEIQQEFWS
Description: as §1, §2

p38a MAPK = p38a MAPK (Homo sapiens, UniProt Q16539)
p38a MAPK, sequence (Q16539 whole entry): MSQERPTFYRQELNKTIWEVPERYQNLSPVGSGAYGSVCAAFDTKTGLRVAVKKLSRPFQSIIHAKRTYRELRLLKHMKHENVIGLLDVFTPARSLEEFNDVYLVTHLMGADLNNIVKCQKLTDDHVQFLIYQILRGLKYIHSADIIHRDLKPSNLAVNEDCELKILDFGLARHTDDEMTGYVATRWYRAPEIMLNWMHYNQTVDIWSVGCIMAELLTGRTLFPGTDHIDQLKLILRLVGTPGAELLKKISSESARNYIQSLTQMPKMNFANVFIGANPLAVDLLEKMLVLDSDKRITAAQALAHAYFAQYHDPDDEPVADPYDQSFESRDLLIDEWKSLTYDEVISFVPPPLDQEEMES
Description: as §1, §2

TIE2 = TIE2 (Homo sapiens, UniProt Q02763)
TIE2, sequence (Q02763 23-1124): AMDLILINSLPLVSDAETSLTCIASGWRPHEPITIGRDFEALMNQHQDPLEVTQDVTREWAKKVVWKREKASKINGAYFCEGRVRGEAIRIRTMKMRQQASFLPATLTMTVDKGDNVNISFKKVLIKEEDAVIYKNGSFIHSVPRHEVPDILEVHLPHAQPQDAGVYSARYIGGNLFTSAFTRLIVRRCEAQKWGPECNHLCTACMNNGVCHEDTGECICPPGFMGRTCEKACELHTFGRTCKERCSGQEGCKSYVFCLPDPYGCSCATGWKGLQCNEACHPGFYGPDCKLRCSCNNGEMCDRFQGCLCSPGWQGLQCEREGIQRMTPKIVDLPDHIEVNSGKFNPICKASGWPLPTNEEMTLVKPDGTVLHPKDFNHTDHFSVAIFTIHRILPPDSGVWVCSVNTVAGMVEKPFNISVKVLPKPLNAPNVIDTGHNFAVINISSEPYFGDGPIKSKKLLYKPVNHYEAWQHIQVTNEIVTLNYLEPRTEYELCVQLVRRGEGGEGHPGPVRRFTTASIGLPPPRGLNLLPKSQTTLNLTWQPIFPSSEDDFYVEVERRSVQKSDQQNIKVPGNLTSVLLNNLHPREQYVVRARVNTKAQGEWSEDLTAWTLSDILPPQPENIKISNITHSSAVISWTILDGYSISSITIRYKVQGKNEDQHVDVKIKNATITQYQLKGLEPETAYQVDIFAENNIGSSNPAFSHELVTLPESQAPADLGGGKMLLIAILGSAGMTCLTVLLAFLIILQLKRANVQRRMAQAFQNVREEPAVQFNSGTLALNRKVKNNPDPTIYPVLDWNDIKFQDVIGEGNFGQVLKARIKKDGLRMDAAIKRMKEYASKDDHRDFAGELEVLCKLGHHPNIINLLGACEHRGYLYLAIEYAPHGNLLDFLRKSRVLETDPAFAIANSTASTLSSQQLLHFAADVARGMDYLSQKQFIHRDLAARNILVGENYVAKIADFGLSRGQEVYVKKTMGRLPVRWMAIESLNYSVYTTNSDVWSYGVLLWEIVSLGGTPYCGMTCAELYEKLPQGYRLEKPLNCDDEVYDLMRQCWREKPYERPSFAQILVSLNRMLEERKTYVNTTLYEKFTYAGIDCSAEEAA
Description: as §1, §2

PDK1 = PDK1 (Homo sapiens, UniProt O15530)
Description: as §1, §2

MEKK1 = MEKK1 (Homo sapiens, UniProt Q13233)
Description: as §1, §2

PKA = PKA (Homo sapiens, UniProt P17612)
Description: as §1, §2

SYK = SYK (Homo sapiens, UniProt P43405)
Description: as §1, §2

TTBK1 = TTBK1 (Homo sapiens, UniProt Q5TCY1)
Description: as §1, §2

VEG-FR = VEG-FR (Homo sapiens, UniProt P17948)
Description: as §1, §2

JNK3 = JNK3 (Homo sapiens, UniProt P53779)
JNK3, sequence (P53779 whole entry): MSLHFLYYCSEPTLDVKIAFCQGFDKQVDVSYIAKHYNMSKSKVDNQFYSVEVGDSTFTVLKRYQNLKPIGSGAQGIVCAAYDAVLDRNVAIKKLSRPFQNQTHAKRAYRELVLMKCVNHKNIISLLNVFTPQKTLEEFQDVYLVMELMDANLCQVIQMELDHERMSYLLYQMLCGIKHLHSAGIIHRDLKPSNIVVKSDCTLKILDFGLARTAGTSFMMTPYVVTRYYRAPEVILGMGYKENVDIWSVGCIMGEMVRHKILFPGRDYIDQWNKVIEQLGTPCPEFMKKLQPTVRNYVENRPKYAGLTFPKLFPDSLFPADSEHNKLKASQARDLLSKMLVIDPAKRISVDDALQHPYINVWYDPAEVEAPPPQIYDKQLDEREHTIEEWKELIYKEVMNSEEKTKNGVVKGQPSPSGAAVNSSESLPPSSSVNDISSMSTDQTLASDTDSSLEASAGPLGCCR
Description: as §1, §2

SmMLCK = SmMLCK (Homo sapiens, UniProt Q15746)
Description: as §1, §2

HIPK3 = HIPK3 (Homo sapiens, UniProt Q9H422)
Description: as §1, §2

Src = Src (Homo sapiens, UniProt P12931)
Description: as §1, §2

MINK1 = MINK1 (Homo sapiens, UniProt Q8N4C8)
Description: as §1, §2

AMPK (hum) = AMPK (hum) (Homo sapiens, UniProt Q13131)
Description: as §1, §2

EPH-A2 = EPH-A2 (Homo sapiens, UniProt P29317)
Description: as §1, §2

LKB1 = LKB1 (Homo sapiens, UniProt Q15831)
Description: as §1, §2

ULK1, sequence (O75385 whole entry): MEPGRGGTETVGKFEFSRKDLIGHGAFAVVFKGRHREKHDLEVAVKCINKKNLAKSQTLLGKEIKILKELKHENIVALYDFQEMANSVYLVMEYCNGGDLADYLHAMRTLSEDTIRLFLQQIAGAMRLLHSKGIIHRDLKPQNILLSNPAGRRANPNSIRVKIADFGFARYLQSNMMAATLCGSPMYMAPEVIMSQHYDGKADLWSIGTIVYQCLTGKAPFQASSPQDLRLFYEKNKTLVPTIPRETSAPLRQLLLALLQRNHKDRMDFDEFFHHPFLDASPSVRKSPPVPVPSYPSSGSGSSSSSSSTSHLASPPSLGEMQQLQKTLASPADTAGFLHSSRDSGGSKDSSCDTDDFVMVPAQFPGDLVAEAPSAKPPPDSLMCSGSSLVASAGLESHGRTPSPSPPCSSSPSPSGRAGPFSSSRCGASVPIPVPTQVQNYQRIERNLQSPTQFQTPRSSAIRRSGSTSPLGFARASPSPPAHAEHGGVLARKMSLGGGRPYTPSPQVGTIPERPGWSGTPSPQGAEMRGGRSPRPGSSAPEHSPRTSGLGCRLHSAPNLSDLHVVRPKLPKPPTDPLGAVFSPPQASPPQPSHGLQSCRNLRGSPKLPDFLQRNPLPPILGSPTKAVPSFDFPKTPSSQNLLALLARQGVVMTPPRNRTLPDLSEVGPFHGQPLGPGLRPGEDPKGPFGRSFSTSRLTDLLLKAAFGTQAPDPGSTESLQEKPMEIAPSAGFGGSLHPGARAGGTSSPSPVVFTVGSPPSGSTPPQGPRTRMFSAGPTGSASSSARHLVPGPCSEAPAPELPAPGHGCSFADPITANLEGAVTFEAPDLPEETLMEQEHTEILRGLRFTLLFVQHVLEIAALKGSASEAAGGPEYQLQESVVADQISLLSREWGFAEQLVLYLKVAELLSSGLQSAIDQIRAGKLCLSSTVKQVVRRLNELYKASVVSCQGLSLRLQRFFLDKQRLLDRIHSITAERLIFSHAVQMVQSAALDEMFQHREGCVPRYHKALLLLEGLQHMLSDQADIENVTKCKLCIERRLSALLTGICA

## CCN(CC)Cc1ccc(OC)c(-c2cc3c(-c4ccc(C(=O)O)c(C(C)C)c4)ccnc3[nH]2)c1 [analogue 1, 4-(2-(5-((Diethylamino)methyl)-2-methoxyphenyl)-1H-pyrrolo[2,3-b]pyridin-4-yl)-2-isopropylbenzoic Acid]
ABL
  activity at 1 µM: 59%
ULK1
  activity at 1 µM: 80%
MARK3
  activity at 1 µM: 34%
ASK1
  activity at 1 µM: 91%
FGF-R1
  activity at 1 µM: 50%
NEK6
  activity at 1 µM: 96%
CDK9-Cyclin T1
  activity at 1 µM: 2%
RSK2
  activity at 1 µM: 87%
PKCγ
  activity at 1 µM: 114%
OSR1
  activity at 1 µM: 38%
MARK2
  activity at 1 µM: 34%
NEK2a
  activity at 1 µM: 87%
ERK2
  activity at 1 µM: 115%
TSSK1
  activity at 1 µM: 55%
MAP4K5
  activity at 1 µM: 14%
TAO1
  activity at 1 µM: 39%
MARK1
  activity at 1 µM: 52%
PIM3
  activity at 1 µM: 80%
CAMK1
  activity at 1 µM: 86%
MLK3
  activity at 1 µM: 107%
MARK4
  activity at 1 µM: 59%
NUAK1
  activity at 1 µM: 18%
CDK2-Cyclin A
  activity at 1 µM: 12%
CHK2
  activity at 1 µM: 77%
HIPK1
  activity at 1 µM: 83%
Aurora B
  activity at 1 µM: 59%
PLK1
  activity at 1 µM: 104%
S6K1
  activity at 1 µM: 87%
JNK2
  activity at 1 µM: 62%
MLK1
  activity at 1 µM: 111%
p38a MAPK
  activity at 1 µM: 89%
TIE2
  activity at 1 µM: 120%
PDK1
  activity at 1 µM: 111%
MEKK1
  activity at 1 µM: 112%
PKA
  activity at 1 µM: 103%
SYK
  activity at 1 µM: 89%
TTBK1
  activity at 1 µM: 102%
VEG-FR
  activity at 1 µM: 80%
JNK3
  activity at 1 µM: 52%
SmMLCK
  activity at 1 µM: 80%
HIPK3
  activity at 1 µM: 93%
Src
  activity at 1 µM: 42%
MINK1
  activity at 1 µM: 44%
AMPK (hum)
  activity at 1 µM: 30%
EPH-A2
  activity at 1 µM: 64%
LKB1
  activity at 1 µM: 115%
